Data on five molecules can be found in patent EP0403366A2, “Cyclomalto-oligosaccharide derivatives and processes for their preparation” (priority 1989, dated 1990).

One data set is described as follows: physchem. As to conditions: water.
The next data set in a line: Solubility in water. As to conditions: in words, compared with cyclomaltoheptaose (CG₇).
The nature of data set [1]: Solubility of apolar solutes in aqueous cyclomalto-oligosaccharide solutions (inclusion complexes). The format is physicochemical.
The nature of data set [2]: Apparent stability constant of inclusion complexes. As to conditions: in words, complexes with the new derivatives compared with the corresponding cyclomaltoheptaose (CG₇) complexes.

Molecules are shown by their SMILES. Values after ≈ are worked out from the molar mass of the structure shown.

As usually defined, the solubility is the concentration that dissolves in the medium under given conditions. A low value points to a poorly soluble substance. On to `OC[C@H]1O[C@@H](SC[C@H]2O[C@@H]3O[C@H]4[C@H](O)[C@@H](O)[C@@H](O[C@H]5[C@H](O)[C@@H](O)[C@@H](O[C@H]6[C@H](O)[C@@H](O)[C@@H](O[C@H]7[C@H](O)[C@@H](O)[C@@H](O[C@H]8[C@H](O)[C@@H](O)[C@@H](O[C@H]9[C@H](O)[C@@H](O)[C@@H](O[C@H]2[C@H](O)[C@H]3O)O[C@@H]9CO)O[C@@H]8CO)O[C@@H]7CO)O[C@@H]6CO)O[C@@H]5CO)O[C@@H]4CO)[C@H](O)[C@@H](O)[C@@H]1O` [Composé 2, 6-S-bêta-D-glucopyranosyl-6-thio-cyclomaltoheptaose], for which the solubility in “physchem” came out at 30 mg/mL (≈ 22.8 mM). Besides, in “Solubility in water”, the “solubilité dans l'eau” value is listed as “très améliorée par rapport à celle du cyclomaltoheptaose”.
`Cc1cccc(N(C)C(=S)Oc2ccc3ccccc3c2)c1` [Tolnaftate, O-2-Naphtyl-méthyl-(3-méthylphényl)-carbomothioate]: the figures for the Solubilité in data set [1] (Solution aqueuse à 1,7.10^-2 mol/l de CG7), in data set [1] (Solution aqueuse à 3,10^-2mol/l de composé n°1) and in data set [1] (Solution aqueuse à 3,10^-2 mol/l de composé n° 2) were 840 µg/mL, 52 690 µg/ml and 37 090 µg/ml, respectively. The same molecule gave a solubility in the data set “physchem” of 0.012 mg/mL (≈ 0.039 mM).
`C[C@]12CCC(=O)C=C1CC[C@@H]1[C@@H]2[C@@H](O)C[C@@]2(C)[C@H]1CC[C@]2(O)C(=O)CO` [Hydrocortisone]: in data set [2], the “constantes de stabilité apparente des complexes” value is reported as “ne sont pas notablement modifiées”.
Turning to `Oc1ccc2ccccc2c1` [2-naphtol], in data set [2], the “constantes de stabilité apparente des complexes” value is recorded as “ne sont pas notablement modifiées”.
With `OC[C@H]1O[C@H](SC[C@H]2O[C@@H]3O[C@H]4[C@H](O)[C@@H](O)[C@@H](O[C@H]5[C@H](O)[C@@H](O)[C@@H](O[C@H]6[C@H](O)[C@@H](O)[C@@H](O[C@H]7[C@H](O)[C@@H](O)[C@@H](O[C@H]8[C@H](O)[C@@H](O)[C@@H](O[C@H]9[C@H](O)[C@@H](O)[C@@H](O[C@H]2[C@H](O)[C@H]3O)O[C@@H]9CO)O[C@@H]8CO)O[C@@H]7CO)O[C@@H]6CO)O[C@@H]5CO)O[C@@H]4CO)[C@H](O)[C@@H](O)[C@@H]1O` [Composé 1, 6-S-alpha-D-glucopyranosyl-6-thio-cyclomaltoheptaose], the concentration in solution in the data set “physchem” (solubility) was 430 mg/mL (≈ 327 mM). For the same molecule, the “solubilité dans l'eau” value in “Solubility in water” is reported as “améliorée par rapport à celle du CG₇”.
